Measured values: BigSolDB 2.1

CC(C)Oc1ccc2c(=O)c(-c3ccccc3)coc2c1
solubility (mole fraction)
Settings | 278.15 K | 283.15 K | 288.15 K | 293.15 K | 298.15 K | 303.15 K | 308.15 K | 313.15 K | 318.15 K | 323.15 K
in DMAc | 0.0395 | 0.0454 | 0.0534 | 0.062 | 0.0721 | 0.0841 | 0.0981 | 0.113 | 0.133 | 0.152
in DMF | 0.0245 | 0.0301 | 0.0352 | 0.0431 | 0.0506 | 0.0622 | 0.0718 | 0.0884 | 0.103 | 0.126
in acetone | 0.00852 | 0.0102 | 0.0128 | 0.0157 | 0.0193 | 0.0241 | 0.0291 | 0.0363 | 0.0441 | 0.056
in acetonitrile | 0.00246 | 0.00336 | 0.00441 | 0.0056 | 0.00731 | 0.00942 | 0.0122 | 0.0159 | 0.0212 | 0.0282
in dichloromethane | 0.0667 | 0.0735 | 0.0809 | 0.0903 | 0.0988 | 0.108 | 0.119 | – | – | –
in ethanol | 0.000992 | 0.00141 | 0.00187 | 0.00239 | 0.00301 | 0.00409 | 0.00521 | 0.00696 | 0.00872 | 0.012
in methanol | 0.000841 | 0.00109 | 0.0015 | 0.00195 | 0.00244 | 0.0032 | 0.00391 | 0.00505 | 0.00623 | 0.00823
in methyl acetate | 0.00948 | 0.0116 | 0.0142 | 0.0174 | 0.0213 | 0.0264 | 0.0321 | 0.039 | 0.0479 | 0.059
in n-butanol | 0.00166 | 0.00215 | 0.00294 | 0.00375 | 0.00494 | 0.00645 | 0.00842 | 0.0113 | 0.0153 | 0.0195
in n-pentanol | 0.00192 | 0.00239 | 0.00338 | 0.00461 | 0.00597 | 0.0073 | 0.00992 | 0.0125 | 0.0165 | 0.0221
in n-propanol | 0.00135 | 0.00172 | 0.00223 | 0.00307 | 0.00399 | 0.00509 | 0.00671 | 0.00877 | 0.0113 | 0.0147
in toluene | 0.0114 | 0.0143 | 0.0174 | 0.022 | 0.0271 | 0.0338 | 0.0417 | 0.0523 | 0.0638 | 0.0802
